{"source": "PubChem BioAssay AID328", "about": "(DTP/NCI, 2004)", "system": "BDF1 mice, P388 leukemia ip, median survival T/C", "assay": "NCI In Vivo Anticancer Drug Screen. Data for tumor model P388 Leukemia (intraperitoneal) in B6D2F1 (BDF1) mice", "conditions": "endpoint: median survival time, higher = longer survival", "summary_of_the_method": "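In tumour-bearing mice, survival after compound treatment is set against the vehicle group and given as a quotient.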", "key": {"[1]": {"conditions": "dose: 100.0 mg/kg/injection, schedule: Q01DX009 (ip), vehicle: saline with Tween-80"}, "[2]": {"conditions": "dose: 200.0 mg/kg/injection, schedule: Q01DX009 (ip), vehicle: saline with Tween-80"}, "[3]": {"conditions": "dose: 400.0 mg/kg/injection, schedule: Q01DX009 (ip), vehicle: saline with Tween-80"}, "[4]": {"conditions": "dose: 25.0 mg/kg/injection, schedule: Q04DX003 (ip), vehicle: saline with Tween-80"}, "[5]": {"conditions": "dose: 50.0 mg/kg/injection, schedule: Q01DX009 (ip), vehicle: saline with Tween-80"}, "[6]": {"conditions": "dose: 50.0 mg/kg/injection, schedule: Q04DX003 (ip), vehicle: saline with Tween-80"}, "[7]": {"conditions": "dose: 100.0 mg/kg/injection, schedule: Q04DX003 (ip), vehicle: saline with Tween-80"}, "[8]": {"conditions": "dose: 200.0 mg/kg/injection, schedule: Q04DX003 (ip), vehicle: saline with Tween-80"}, "[9]": {"conditions": "dose: 400.0 mg/kg/injection, schedule: Q04DX003 (ip), vehicle: saline with Tween-80"}}, "note": "Values joined by “and” are separate entries in the source; they are usually repeats but may differ in a detail not shown here. Equal entries are not always repeated. Toxic doses and inconclusive results are not listed.", "data": [{"smiles": "CC(C)COC(=O)CN(CC(=O)OCC(C)C)c1ccccc1", "values": [{"measurement": "T/C", "setting": "[1]", "result": "95 % of control"}, {"measurement": "T/C", "setting": "[2]", "result": "100 % of control"}, {"measurement": "T/C", "setting": "[3]", "result": "110 % of control"}]}, {"smiles": "CC1(C)OC2C(CO)OC(n3cnc4c(N)ncnc43)C2O1", "note": "(stereo not given)", "values": [{"measurement": "T/C", "setting": "dose: 75.0 mg/kg/injection, schedule: Q04DX003 (ip), vehicle: Klucel (hydroxypropylcellulose) (HPC)", "result": "100 % of control"}, {"measurement": "T/C", "setting": "dose: 300.0 mg/kg/injection, schedule: Q04DX003 (ip), vehicle: Klucel (hydroxypropylcellulose) (HPC)", "result": "100 % of control"}]}, {"smiles": "NC(N)=NC(N)=Nc1ccc2ccc3cccc4ccc1c2c34", "values": [{"measurement": "T/C", "setting": "dose: 25.0 mg/kg/injection, schedule: Q04DX003 (ip), vehicle: saline + alcohol", "result": "98 % of control"}, {"measurement": "T/C", "setting": "dose: 50.0 mg/kg/injection, schedule: Q04DX003 (ip), vehicle: saline + alcohol", "result": "106 % of control"}]}, {"smiles": "CC(=O)CSc1nc2nccnc2[nH]1", "values": [{"measurement": "T/C", "setting": "dose: 25.0 mg/kg/injection, schedule: Q01DX009 (ip), vehicle: saline with Tween-80", "result": "111 % of control"}, {"measurement": "T/C", "setting": "[4]", "result": "97 % of control"}, {"measurement": "T/C", "setting": "[5]", "result": "111 % of control"}, {"measurement": "T/C", "setting": "[6]", "result": "108 % of control"}, {"measurement": "T/C", "setting": "[1]", "result": "106 % of control"}, {"measurement": "T/C", "setting": "[7]", "result": "97 % of control"}, {"measurement": "T/C", "setting": "[2]", "result": "106 % of control"}, {"measurement": "T/C", "setting": "[8]", "result": "105 % of control"}, {"measurement": "T/C", "setting": "[3]", "result": "103 % of control"}, {"measurement": "T/C", "setting": "[9]", "result": "100 % of control"}]}, {"smiles": "OCC[P+](c1ccccc1)(c1ccccc1)c1ccccc1", "values": [{"measurement": "T/C", "setting": "dose: 25.0 mg/kg/injection, schedule: Q01DX001 (ip), vehicle: saline", "result": "108 % of control"}, {"measurement": "T/C", "setting": "dose: 50.0 mg/kg/injection, schedule: Q01DX001 (ip), vehicle: saline", "result": "98 % of control"}]}, {"smiles": "CC(=O)OC(C(=O)N(c1ccccc1)c1ccccc1)c1ccccc1", "note": "(stereo not given)", "values": [{"measurement": "T/C", "setting": "[1]", "result": "92 % of control"}, {"measurement": "T/C", "setting": "[3]", "result": "96 % of control"}]}, {"smiles": "Cc1cccc[n+]1CCC(N)=O", "values": [{"measurement": "T/C", "setting": "dose: 6.25 mg/kg/injection, schedule: Q01DX009 (ip), vehicle: saline", "result": "92 % of control"}, {"measurement": "T/C", "setting": "dose: 12.5 mg/kg/injection, schedule: Q01DX009 (ip), vehicle: saline", "result": "117 % of control"}, {"measurement": "T/C", "setting": "dose: 25.0 mg/kg/injection, schedule: Q01DX009 (ip), vehicle: saline", "result": "103 % of control"}]}, {"smiles": "CC(=O)NC(Cc1ccc(N(CCCl)CCCl)cc1)C(=O)O", "note": "(stereo not given)", "values": [{"measurement": "T/C", "setting": "dose: 1.56 mg/kg/injection, schedule: Q01DX009 (ip), vehicle: water", "result": "110 % of control"}, {"measurement": "T/C", "setting": "dose: 3.12 mg/kg/injection, schedule: Q01DX009 (ip), vehicle: water", "result": "123 % of control"}, {"measurement": "T/C", "setting": "dose: 6.25 mg/kg/injection, schedule: Q01DX009 (ip), vehicle: water", "result": "118 % of control"}, {"measurement": "T/C", "setting": "dose: 12.5 mg/kg/injection, schedule: Q04DX003 (ip), vehicle: water", "result": "172 % of control"}, {"measurement": "T/C", "setting": "dose: 25.0 mg/kg/injection, schedule: Q01DX009 (ip), vehicle: water", "result": "203 % of control"}, {"measurement": "T/C", "setting": "dose: 25.0 mg/kg/injection, schedule: Q04DX003 (ip), vehicle: water", "result": "164 % of control and 200 % of control"}, {"measurement": "T/C", "setting": "dose: 50.0 mg/kg/injection, schedule: Q01DX009 (ip), vehicle: water", "result": "248 % of control"}, {"measurement": "T/C", "setting": "dose: 50.0 mg/kg/injection, schedule: Q04DX003 (ip), vehicle: water", "result": "245 % of control and 200 % of control"}, {"measurement": "T/C", "setting": "dose: 100.0 mg/kg/injection, schedule: Q04DX003 (ip), vehicle: water", "result": "194 % of control"}]}, {"smiles": "CN(C)N=C(Cc1ccccc1)Cc1ccccc1", "values": [{"measurement": "T/C", "setting": "dose: 12.5 mg/kg/injection, schedule: Q04DX003 (ip), vehicle: saline with Tween-80", "result": "108 % of control"}, {"measurement": "T/C", "setting": "[4]", "result": "108 % of control"}, {"measurement": "T/C", "setting": "[6]", "result": "104 % of control"}]}, {"smiles": "OCC(O)CCBr", "note": "(stereo not given)", "values": [{"measurement": "T/C", "setting": "dose: 264.0 mg/kg/injection, schedule: Q01DX009 (ip), vehicle: saline with Tween-80", "result": "150 % of control"}, {"measurement": "T/C", "setting": "[3]", "result": "170 % of control"}, {"measurement": "T/C", "setting": "dose: 600.0 mg/kg/injection, schedule: Q01DX009 (ip), vehicle: saline with Tween-80", "result": "208 % of control"}]}, {"smiles": "CC(C)CC1NC(=O)C(Cc2ccc(OCc3ccccc3)cc2)NC1=O", "note": "(stereo not given)", "values": [{"measurement": "T/C", "setting": "dose: 40.0 mg/kg/injection, schedule: Q04DX003 (ip), vehicle: saline with Tween-80", "result": "95 % of control"}, {"measurement": "T/C", "setting": "[5]", "result": "101 % of control"}, {"measurement": "T/C", "setting": "dose: 66.0 mg/kg/injection, schedule: Q04DX003 (ip), vehicle: saline with Tween-80", "result": "91 % of control"}, {"measurement": "T/C", "setting": "[1]", "result": "95 % of control"}, {"measurement": "T/C", "setting": "[7]", "result": "87 % of control"}, {"measurement": "T/C", "setting": "dose: 166.0 mg/kg/injection, schedule: Q04DX003 (ip), vehicle: saline with Tween-80", "result": "95 % of control"}, {"measurement": "T/C", "setting": "[2]", "result": "93 % of control"}, {"measurement": "T/C", "setting": "[8]", "result": "111 % of control"}, {"measurement": "T/C", "setting": "dose: 276.0 mg/kg/injection, schedule: Q04DX003 (ip), vehicle: saline with Tween-80", "result": "91 % of control"}, {"measurement": "T/C", "setting": "[3]", "result": "96 % of control"}, {"measurement": "T/C", "setting": "[9]", "result": "111 % of control"}]}]}
